Where “and” joins values, the source holds several entries; their conditions need not be identical. Equal entries are not always repeated. Ends that are not written are not given here.
How the values were obtained:
[1] = biological target: T1, IDE (Homo sapiens, UniProt P14735); assay: Vulnerability of peptides to degradation by IDE: 0 vs 4 h pre-incubation, then FRET1 assay; format: biochemical; conditions: 4-hr incubation; for IC50: FRET1 assay
T1 construct: made in house; host or cells: bacteria
T1 sequence (P14735 1-1019): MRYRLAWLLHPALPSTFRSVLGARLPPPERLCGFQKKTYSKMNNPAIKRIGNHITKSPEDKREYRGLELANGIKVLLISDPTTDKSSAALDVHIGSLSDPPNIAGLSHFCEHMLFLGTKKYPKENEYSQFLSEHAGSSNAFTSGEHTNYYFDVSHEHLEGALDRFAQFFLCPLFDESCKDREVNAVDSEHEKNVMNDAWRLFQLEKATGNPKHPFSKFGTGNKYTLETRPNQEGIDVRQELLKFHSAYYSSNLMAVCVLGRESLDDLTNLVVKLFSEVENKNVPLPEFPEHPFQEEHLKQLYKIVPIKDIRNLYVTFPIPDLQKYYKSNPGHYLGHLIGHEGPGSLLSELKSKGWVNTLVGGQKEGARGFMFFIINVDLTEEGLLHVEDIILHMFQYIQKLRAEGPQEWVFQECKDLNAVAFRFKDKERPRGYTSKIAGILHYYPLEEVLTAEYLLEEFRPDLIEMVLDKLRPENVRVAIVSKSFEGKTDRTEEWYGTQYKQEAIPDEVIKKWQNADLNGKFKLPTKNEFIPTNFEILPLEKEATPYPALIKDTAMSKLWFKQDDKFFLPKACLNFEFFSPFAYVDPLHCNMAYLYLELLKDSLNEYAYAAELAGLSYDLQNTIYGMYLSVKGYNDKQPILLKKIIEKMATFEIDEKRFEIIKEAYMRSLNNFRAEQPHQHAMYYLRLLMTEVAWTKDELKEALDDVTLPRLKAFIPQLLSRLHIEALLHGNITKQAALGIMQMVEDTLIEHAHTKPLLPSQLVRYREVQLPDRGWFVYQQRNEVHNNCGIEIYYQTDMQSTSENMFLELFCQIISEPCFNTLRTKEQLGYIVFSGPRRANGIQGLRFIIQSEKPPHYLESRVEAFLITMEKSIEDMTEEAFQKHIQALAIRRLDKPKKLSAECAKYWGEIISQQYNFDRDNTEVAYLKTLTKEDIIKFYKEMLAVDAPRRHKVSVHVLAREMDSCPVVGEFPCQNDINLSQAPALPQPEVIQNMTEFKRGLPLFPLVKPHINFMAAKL
Summary of the method: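 Recombinant human IDE (1 nM, bacterially purified) degrading FRET1 substrate Mca-peptide-Dnp (5 μM) in PBS with 0.05% BSA; peptides pre-incubated 0 or 4 h before assay. Fluorescence monitored as degradation read-out.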

[2] = biological target: T1, IDE; assay: biochemical; conditions: for remaining activity at 500 µM: individual replicates, read-out: Percent activity at 500 uM, Replicate 1-4
Summary of the method: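 Recombinant human IDE (1 nM, bacterially expressed) degraded FRET1 substrate (5 μM), fluoresceinated biotinylated amyloid β (500 nM) or human insulin (50 nM) in PBS with 0.05% BSA. Peptides tested included N-acetylated and C-amidated variants.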

Ki ([1]; Cheng-Prusoff from IC50, FRET1 KM 10 uM, substrate 5 uM): 259 µM
remaining activity at 0.12207 µM ([1]; 4 h, Cmpd 0.12207 uM, relative to DMSO-only controls, individual runs, read-out: Percent Activity (normalized initial velocity of FRET1 hydrolysis)): 89.9%
remaining activity at 0.488281 µM ([1]; 4 h, Cmpd 0.488281 uM, relative to DMSO-only controls, individual runs, read-out: Percent Activity (normalized initial velocity of FRET1 hydrolysis)): 96.1%
remaining activity at 1.95312 µM ([1]; 4 h, Cmpd 1.95312 uM, relative to DMSO-only controls, individual runs, read-out: Percent Activity (normalized initial velocity of FRET1 hydrolysis)): 86.6%
remaining activity at 7.8125 µM ([1]; 4 h, Cmpd 7.8125 uM, relative to DMSO-only controls, individual runs, read-out: Percent Activity (normalized initial velocity of FRET1 hydrolysis)): 80.4%
remaining activity at 31.25 µM ([1]; 4 h, Cmpd 31.25 uM, relative to DMSO-only controls, individual runs, read-out: Percent Activity (normalized initial velocity of FRET1 hydrolysis)): 84.9%
remaining activity at 125 µM ([1]; 4 h, Cmpd 125 uM, relative to DMSO-only controls, individual runs, read-out: Percent Activity (normalized initial velocity of FRET1 hydrolysis)): 75.6%
remaining activity at 500 µM ([1]; 4 h, Cmpd 500 uM, relative to DMSO-only controls, individual runs, read-out: Percent Activity (normalized initial velocity of FRET1 hydrolysis)): 30.5%
IC50 ([1]; individual replicates, read-out: IC50s): 402 µM and 377 µM
IC50 ([1]; mean of 2 replicates, read-out: IC50s, Mean): 389 µM
Ki ([2]; Cheng-Prusoff, KM 10 uM, substrate concentration 5 uM, read-out: Ki values, Mean): 3.93 µM
remaining activity at 31.25 µM ([2]; dose-response, 31.25 uM, individual runs, read-out: Percent Activity (normalized source data)): 46.9%
IC50 ([2]; dose-response, FRET1, read-out: IC50s, Mean): 5.89 µM
IC50 <500 uM? ([2]; initial test at 500 uM): YES
remaining activity at 500 µM ([2]; initial test, percent of initial velocity relative to DMSO-only controls): 8.6%
remaining activity at 500 µM ([2]; judged as IC50 <100 uM?): 15.5%
Ki ([2]; substrate FRET1 5 μM, Ki from IC50 with the Cheng-Prusoff equation, read-out: Ki FRET1): 3.9 ± 0.5 µM
Sequence: WSPISGKFFQRF [P12-4]

Reference: publication PMC5814047, “Peptidic inhibitors of insulin-degrading enzyme with potential for dermatological applications discovered via phage display” (PLoS ONE, 2018)
